CC50 and EC50 data for 22 molecules are collected here from patent US11312727B1, “Macrocyclic flu endonuclease inhibitors” (Janssen BioPharma, Inc., priority 2018, dated 2022).

A short description of one series: in vitro. The conditions noted are these: human, CC50, uninfected A549 cells, CellTiter-Glo.
The test system of series [1] is Influenza strain A549 A/WSN/33 (H1N1). Nature of the series: microbe, parasite or virus in culture. The format is cell-based. The conditions noted are these: Influenza A virus, A549, 20 h, A549 cells, influenza A/WSN/33 (H1N1), 20 hours incubation; read-out: A549_A(H1N1) EC50.

As to `O=C1c2c(O)c(=O)ccn2N2CN1C1(/C=C/COc3cc(F)c(F)c4c3[C@@H]2c2ncccc2SC4)CCC1` (single isomer, unassigned) [Compound 168A, (21a′*R,*E)-24′,25′-difluoro-16′-hydroxy-6′,21a′-dihydro-10′H-spiro[cyclobutane-1,13′-[7,8](epiprop[1]en[1]yl[3]ylidene)[14,21]methanopyrido[1,2-f]pyrido[2′,3′:6,7]thiepino[4,5-c][1]oxa[5,6,9]triazacyclotridecine]-15′,17′-dione], the CC50 – broadly, the concentration that lowers cell viability or growth by half – in “in vitro” is greater than 100 nM. In addition, in series [1], the EC50 (commonly the concentration giving half of the maximal effect) was greater than 50 nM.

For `O=C1c2c(O)c(=O)ccn2N2CN1C/C=C\COc1cc(F)c(F)cc1[C@H]2c1ccccc1` (single isomer, unassigned) [Compound 41A, (18*R,Z)-2,3-difluoro-12-hydroxy-18-phenyl-6,9-dihydro-18H-10,17-methanobenzo[b]pyrido[1,2-f][1]oxa[5,6,9]triazacyclotridecine-11,13-dione], in the series “in vitro”, the CC50 was greater than 2000 nM. Also, in series [1], the EC50 worked out at 294 nM.

On to `O=C1c2c(O)c(=O)ccn2N2CN1CCCCOc1ccc(F)cc1[C@@H]2c1cccc(F)c1` (single isomer, unassigned) [Compound 32B, (18*S)-2-fluoro-18-(3-fluorophenyl)-12-hydroxy-6,7,8,9-tetrahydro-18H-10,17-methanobenzo[b]pyrido[1,2-f][1]oxa[5,6,9]triazacyclotridecine-11,13-dione], for which the cytotoxic concentration (CC50) in “in vitro” is greater than 2000 nM. Also, the EC50 in series [1] worked out at 25 nM.

Molecule `O=C1c2c(O)c(=O)ccn2N2CN1[C@@H](C1CC1)/C=C/COc1c(ccc(F)c1F)[C@@H]2c1ccccc1` (single isomer, unassigned) [Compound 152AA, (9*S,18*S,*E)-9-cyclopropyl-3,4-difluoro-12-hydroxy-18-phenyl-6,9-dihydro-18H-10,17-methanobenzo[b]pyrido[1,2-f][1]oxa[5,6,9]triazacyclotridecine-11,13-dione] yielded a half-maximal cytotoxic concentration (CC50) in the series “in vitro” greater than 100 nM. Besides, the EC50 in series [1] is greater than 50 nM.

As to `O=C1c2c(O)c(=O)ccn2N2CN1C/C=C\COc1ccccc1[C@@H]2c1ccc(F)cc1` (single isomer, unassigned) [Compound 47B, (18*S,Z)-18-(4-fluorophenyl)-12-hydroxy-6,9-dihydro-18H-10,17-methanobenzo[b]pyrido[1,2-f][1]oxa[5,6,9]triazacyclotridecine-11,13-dione], the cytotoxic concentration (CC50) in “in vitro” is greater than 200 nM. Also, in series [1], the EC50 came out at 15 nM.

As for `CC[C@@H]1/C=C/COc2c(ccc(F)c2F)[C@H](c2ccccc2)N2CN1C(=O)c1c(O)c(=O)ccn12` [Compound 101BB, (9R,18S,E)-9-ethyl-3,4-difluoro-12-hydroxy-18-phenyl-6,9-dihydro-18H-10,17-methanobenzo[b]pyrido[1,2-f][1]oxa[5,6,9]triazacyclotridecine-11,13-dione], the cytotoxic concentration (CC50) in the series “in vitro” was found to be 29900 nM. Besides, in series [1], the EC50 turned out to be 5030 nM.

In the case of `CC[C@@H]1/C=C/COc2c(ccc(F)c2F)[C@H](c2ccccn2)N2CN1C(=O)c1c(O)c(=O)ccn12` (single isomer, unassigned) [Compound 160BB, (9*R,18*R,*E)-9-ethyl-3,4-difluoro-12-hydroxy-18-(pyridin-2-yl)-6,9-dihydro-18H-10,17-methanobenzo[b]pyrido[1,2-f][1]oxa[5,6,9]triazacyclotridecine-11,13-dione], the cytotoxic concentration (CC50) in “in vitro” was greater than 100 nM. Moreover, the 50% effective concentration (EC50) in series [1] was greater than 50 nM.

Consider `O=C1c2c(O)c(=O)ccn2N2CN1C[C@H]1C[C@@H]1COc1c(F)cccc1[C@@H]2c1ccccc1` (single isomer, unassigned) [Compound 125BB, (1a*S,8*S,17a*S)-4-fluoro-14-hydroxy-8-phenyl-1a,2,17,17a-tetrahydro-1H,8H-9,16-methanobenzo[b]cyclopropa[k]pyrido[1,2-f][1]oxa[5,6,9]triazacyclotridecine-13,15-dione], for which the cytotoxic concentration (CC50) in “in vitro” is greater than 200 nM. The EC50 in series [1] is greater than 100 nM.

On to `O=C1c2c(O)c(=O)ccn2N2CN1C/C=C\CCc1ncccc1[C@@H]2c1ccccc1` (single isomer, unassigned) [Compound 24B, (18*S,*Z)-12-hydroxy-18-phenyl-5,6,9,18-tetrahydro-10,17-methanodipyrido[1,2-b:2′,3′-k][1,2,5]triazacyclotridecine-11,13-dione], for which, in the series “in vitro”, the 50% cytotoxic concentration (CC50) is greater than 1000 nM. In addition, in series [1], the half-maximal effective concentration (EC50) was found to be 1530 nM.

Molecule `O=C1c2c(O)c(=O)ccn2N2CN1C1(/C=C/COc3c(ccc(Cl)c3Cl)[C@H]2c2ccccc2)CC1` (single isomer, unassigned) [Compound 113A, (18′*R,*E)-3′,4′-dichloro-12′-hydroxy-18′-phenyl-6′H,18′H-spiro[cyclopropane-1,9′-[10,17]methanobenzo[b]pyrido[1,2-f][1]oxa[5,6,9]triazacyclotridecine]-11′,13′-dione] yielded a CC50 in the series “in vitro” greater than 200 nM. Also, the EC50 in series [1] was greater than 100 nM.

For the molecule `CC[C@@H]1/C=C/COc2cc(Cl)ccc2[C@@H](c2ccccc2)N2CN1C(=O)c1c(O)c(=O)ccn12` (single isomer, unassigned) [Compound 97AA], the CC50 in “in vitro” was greater than 1000 nM. In series [1], the concentration giving a half-maximal response (EC50) was 5.8 nM.

`O=C1c2c(O)c(=O)ccn2N2CN1C/C=C\COc1ccc(F)cc1[C@H]2c1ccccc1` (single isomer, unassigned) [Compound 22A, (18*R,Z)-2-fluoro-12-hydroxy-18-phenyl-6,9-dihydro-18H-10,17-methanobenzo[b]pyrido[1,2-f][1]oxa[5,6,9]triazacyclotridecine-11,13-dione] gave a cytotoxic concentration (CC50) in “in vitro” greater than 1000 nM. The EC50 in series [1] is 9540 nM.

In turn, `O=C1c2c(O)c(=O)ccn2N2CN1C1(/C=C/COc3cccc4c3[C@@H]2c2ccccc2SC4)CCC1` (single isomer, unassigned) [Compound 147A, (17a′*R,*E)-12′-hydroxy-2′,17a′-dihydro-6′H-spiro[cyclobutane-1,9′-[3,4](epiprop[1]en[1]yl[3]ylidene)[10,17]methanobenzo[6,7]thiepino[4,5-c]pyrido[1,2-f][1]oxa[5,6,9]triazacyclotridecine]-11′,13′-dione] returned a 50% cytotoxic concentration (CC50) in “in vitro” greater than 10000 nM. The concentration for a half-maximal effect (EC50) in series [1] was greater than 5000 nM.

Molecule `O=C1c2c(O)c(=O)ccn2N2CN1CCC/C=C\c1cccc3c1[C@H]2c1ccccc1CC3` [Compound 31B, (19bR,Z)-4-hydroxy-8,9,15,19b-tetrahydro-7H,14H-13,12-(epiprop[1]en[1]yl[3]ylidene)-6,20-methanobenzo[3,4]cyclohepta[1,2-1]pyrido[1,2-b][1,2,5]triazacyclotridecine-3,5-dione] returned a CC50 in “in vitro” greater than 2000 nM. In series [1], the EC50 came to 4 nM.

Consider `COC[C@@H]1N2C/C=C\COc3ccccc3[C@@H](c3ccccc3)N1n1ccc(=O)c(O)c1C2=O` (single isomer, unassigned) [Compound 109A, (18*R,19*R,*Z)-12-hydroxy-19-(methoxymethyl)-18-phenyl-6,9-dihydro-18H-10,17-methanobenzo[b]pyrido[1,2-f][1]oxa[5,6,9]triazacyclotridecine-11,13-dione], for which the half-maximal cytotoxic concentration (CC50) in “in vitro” was greater than 200 nM. For the same molecule, in series [1], the concentration giving a half-maximal response (EC50) is 6.6 nM.

Take `O=C1c2c(O)c(=O)ccn2N2CN1C/C=C\COc1ccccc1[C@@H]2c1cccnc1` (single isomer, unassigned) [Compound 26B, (18*S,*Z)-12-hydroxy-18-(pyridin-3-yl)-6,9-dihydro-18H-10,17-methanobenzo[b]pyrido[1,2-f][1]oxa[5,6,9]triazacyclotridecine-11,13-dione]: the CC50 in the series “in vitro” is greater than 4000 nM. The EC50 in series [1] stood at 40100 nM.

In turn, `O=C1c2c(O)c(=O)ccn2N2CN1C[C@H]1C[C@@H]1COc1c(ccc(F)c1F)[C@@H]2c1ccccc1` (single isomer, unassigned) [Compound 139AA, (1a*S,8*S,17a*S)-4,5-difluoro-14-hydroxy-8-phenyl-1a,2,17,17a-tetrahydro-1H,8H-9,16-methanobenzo[b]cyclopropa[k]pyrido[1,2-f][1]oxa[5,6,9]triazacyclotridecine-13,15-dione] showed a 50% cytotoxic concentration (CC50) in “in vitro” of 26900 nM. The EC50 in series [1] worked out at 8320 nM.

Consider `O=C1c2c(O)c(=O)ccn2N2CN1C/C=C/COCc1ccccc1C2c1ccccc1` (centres unmarked) [Compound 17, (E)-15-hydroxy-2-phenyl-12,13,14,16-tetrahydro-11H-5-oxa-1(1,3)-pyrido[2,1-f][1,2,4]triazina-3(1,2)-benzenacyclononaphan-7-ene-14,16-dione], for which the half-maximal cytotoxic concentration (CC50) in “in vitro” is greater than 20000 nM. For the same molecule, the EC50 in series [1] was found to be 77 nM.

`O=C1c2c(O)c(=O)ccn2N2CN1CC/C=C/COc1cccc3c1[C@@H]2c1ccccc1SC3` (single isomer, unassigned) [Compound 37C] registered a CC50 in “in vitro” greater than 2000 nM. For the same molecule, the concentration for a half-maximal effect (EC50) in series [1] is greater than 1000 nM.

The molecule `O=C1c2c(O)c(=O)ccn2N2CN1CC[C@H]1C[C@H]1COc1cccc3c1[C@@H]2c1ccccc1SC3` (single isomer, unassigned) [Compound 144AB, (1*R,13*R,15*R)-7-hydroxy-17-oxa-24-thia-2,3,10-triazaheptacyclo[16.12.1.12,10.03,8.013,15.022,31.025,30]dotriaconta-4,18,20,22(31),25(30),26,28-heptaene-6,9-dione] returned a 50% cytotoxic concentration (CC50) in “in vitro” greater than 200 nM. In addition, in series [1], the EC50 is greater than 100 nM.

Turning to `O=C1c2c(O)c(=O)ccn2N2CN1C1(/C=C/COc3c(F)cccc3[C@@H]2c2ccccc2)CC1` (single isomer, unassigned) [Compound 95A, (18′*S,E)-4′-fluoro-12′-hydroxy-18′-phenyl-6′H,18′H-spiro[cyclopropane-1,9′-[10,17]methanobenzo[b]pyrido[1,2-f][1]oxa[5,6,9]triazacyclotridecine]-11′,13′-dione], in the series “in vitro”, the half-maximal cytotoxic concentration (CC50) was greater than 1000 nM. The EC50 in series [1] is greater than 500 nM.

In turn, `O=C1c2c(O)c(=O)ccn2N2CN1CC/C=C\COc1ccc(F)c3c1[C@@H]2c1cccc(F)c1SC3` (single isomer, unassigned) [Compound 151A, (1*R,13*Z)-20,25-difluoro-7-hydroxy-16-oxa-23-thia-2,3,10-triazahexacyclo[15.12.1.12,10.03,8.021,30.024,29]hentriaconta-4,7,13,17,19,21(30),24(29),25,27-nonaene-6,9-dione] registered a CC50 in the series “in vitro” greater than 100 nM. The EC50 in series [1] was greater than 50 nM.
